Values after ≈ are worked out from the molar mass of the structure shown.
Key:
[1] = tested on: Bordetella bronchiaseptica AR3; experiment: in vitro antimicrobial activity (MIC), agar dilution, Part 1; assay type: cell-based; conditions: Bordetella bronchiaseptica AR3, Pig; Mueller Hinton agar, 37°C, 18-24 hours
Description: (§1) Test microorganisms listed in Table 2 were cultured overnight in heart infusion nutrient broth (produced by Eiken Chemical Co., Ltd.). Culture broth containing about 10⁸/ml cells was diluted to a volume of 100 times. An aliquot (about 0.05 ml) of the diluted broth was inoculated onto a Mueller Hinton agar plate (produced by Eiken Chemical Co., Ltd.) to which Compound No. 1 was added in a prescribed concentration. […]

Escherichia coli 15-4 = experiment: as above; assay type: cell-based; conditions: 154; Escherichia coli 15-4, Cow; Mueller Hinton agar, 37°C, 18-24 hours
Description: as §1

Escherichia coli 164 = experiment: as above; assay type: cell-based; conditions: Escherichia coli 164, Pig; Mueller Hinton agar, 37°C, 18-24 hours
Description: as §1

Escherichia coli 442 = experiment: as above; assay type: cell-based; conditions: Escherichia coli 442, Chicken; Mueller Hinton agar, 37°C, 18-24 hours
Description: as §1

[2] = tested on: Salmonella typhimurium 101; experiment: as above; assay type: cell-based; conditions: Salmonella enterica; Salmonella typhimurium 101, Chicken; Mueller Hinton agar, 37°C, 18-24 hours
Description: as §1

[3] = tested on: Salmonella typhimurium 595; experiment: as above; assay type: cell-based; conditions: Salmonella enterica; Salmonella typhimurium 595, Pig; Mueller Hinton agar, 37°C, 18-24 hours
Description: as §1

[4] = tested on: Staphylococcus aureus Aichi 2; experiment: as above; assay type: cell-based; conditions: AICHI2; Staphylococcus aureus Aichi 2, Chicken; Mueller Hinton agar, 37°C, 18-24 hours
Description: as §1

Escherichia coli = experiment: Effect of oral administration on chicken inoculated with Escherichia coli; assay type: in vivo; conditions: for Chickens developing disease in air sac (naked eye observation) / No. of dead chickens: 5 tested chickens
Description: Escherichia coli cells collected from infected chicken were cultured overnight in a trypticase soy broth (BBL). 0.2 ml of this culture broth was injected into the trachea of chickens of average body weight of 80 g using a 1 ml disposable injection needle. Beginning 2 hours after the inoculation, feeds to which Compound (1) had been added in the amount of 50 ppm, 25 ppm, or 12.5 ppm were freely given to the chickens for 5 days. Following the administration of Compound (1) the chickens were given feed with no addition of drug for 5 days. The surviving chickens were sacrificed and dissected. After examination of the degree of disease in the air sac, Escherichia coli in the trachea, lung, and air sac were quantitatively determined. […]

Mycoplasma gallisepticum = experiment: Effect of oral administration on chicken inoculated with Mycoplasma gallisepticum; assay type: in vivo; conditions: for Chickens developing disease in air sac (naked eye observation) / No. of dead chickens: 5 tested chickens
Description: Mycoplasma gallisepticum cells collected from chickens having respiratory Mycoplasma infection were cultured for 3 days in a Frey liquid media for Mycoplasma. 0.2 ml of this culture broth was injected into the trachea of chickens of an average body weight of 80 g using a 1 ml disposable injection needle. Beginning from the next day following the inoculation, feeds to which Compound (1) had been added in the amount of 100 ppm, 75 ppm, or 50 ppm were freely given to the chickens for 5 days. Following the administration of Compound (1) the chickens were given feed containing no drug for a further 5 days. The surviving chickens were sacrificed and dissected. After examination of the degree of disease in the air sac, Mycoplasma gallisepticum in the infraorbital sinus, trachea, lung, and air sac were determined. […] TABLE 6 […]

## CC1COc2c(N3CCN(C)CC3)c(F)cc3c(=O)c(C(=O)O)cn1c23 (racemic) [Ofloxacin, reference compound]
[1]
  MIC: 0.39 µg/mL (≈ 1.08 µM)
Escherichia coli 15-4
  MIC: 0.1 µg/mL (≈ 0.277 µM)
Escherichia coli 164
  MIC: 0.1 µg/mL (≈ 0.277 µM)
Escherichia coli 442
  MIC: 0.05 µg/mL (≈ 0.138 µM)
[2]
  MIC: 0.05 µg/mL (≈ 0.138 µM)
[3]
  MIC: 0.1 µg/mL (≈ 0.277 µM)
[4]
  MIC: 0.2 µg/mL (≈ 0.553 µM)
Escherichia coli; 12.5 ppm in feed for 5 days
  Escherichia coli collected in Air sac: 4.20 Logarithmic number of collected cells per 1 g of tissue
  Escherichia coli collected in Lung: 5.26 Logarithmic number of collected cells per 1 g of tissue
  Escherichia coli collected in Trachea: 7.48 Logarithmic number of collected cells per 1 g of tissue
  Chickens developing disease in air sac (naked eye observation): 3
  No. of dead chickens: 2
Escherichia coli; 25 ppm in feed for 5 days
  Escherichia coli collected in Air sac: 3.90 Logarithmic number of collected cells per 1 g of tissue
  Escherichia coli collected in Lung: 1.86 Logarithmic number of collected cells per 1 g of tissue
  Escherichia coli collected in Trachea: 4.58 Logarithmic number of collected cells per 1 g of tissue
  Chickens developing disease in air sac (naked eye observation): 3
  No. of dead chickens: 1
Escherichia coli; 50 ppm in feed for 5 days
  Escherichia coli collected in Air sac: 0 Logarithmic number of collected cells per 1 g of tissue
  Escherichia coli collected in Lung: 0 Logarithmic number of collected cells per 1 g of tissue
  Escherichia coli collected in Trachea: 0 Logarithmic number of collected cells per 1 g of tissue
  Chickens developing disease in air sac (naked eye observation): 2
  No. of dead chickens: 1
Mycoplasma gallisepticum; 50 ppm in feed for 5 days
  Mycoplasma gallisepticum collected in Air sac: 3.70 Logarithmic number of collected cells per 1 g of tissue
  Mycoplasma gallisepticum collected in Infraorbital sinus: 1/5
  Mycoplasma gallisepticum collected in Lung: 4.78 Logarithmic number of collected cells per 1 g of tissue
  Mycoplasma gallisepticum collected in Trachea: 3.64 Logarithmic number of collected cells per 1 g of tissue
  Chickens developing disease in air sac (naked eye observation): 1
  No. of dead chickens: 0
Mycoplasma gallisepticum; 75 ppm in feed for 5 days
  Mycoplasma gallisepticum collected in Air sac: 0 Logarithmic number of collected cells per 1 g of tissue
  Mycoplasma gallisepticum collected in Infraorbital sinus: 0/5
  Mycoplasma gallisepticum collected in Lung: 4.00 Logarithmic number of collected cells per 1 g of tissue
  Mycoplasma gallisepticum collected in Trachea: 3.82 Logarithmic number of collected cells per 1 g of tissue
  Chickens developing disease in air sac (naked eye observation): 0
  No. of dead chickens: 0
Mycoplasma gallisepticum; 100 ppm in feed for 5 days
  Mycoplasma gallisepticum collected in Air sac: 0 Logarithmic number of collected cells per 1 g of tissue
  Mycoplasma gallisepticum collected in Infraorbital sinus: 0/5
  Mycoplasma gallisepticum collected in Lung: 0 Logarithmic number of collected cells per 1 g of tissue
  Mycoplasma gallisepticum collected in Trachea: 0 Logarithmic number of collected cells per 1 g of tissue
  Chickens developing disease in air sac (naked eye observation): 0
  No. of dead chickens: 0
